Experimental data taken from patent US7601357B2 (priority 2005, dated 2009).
Several values for one entry are separate records, joined by “and”; a condition that tells them apart may be missing. Equal entries are not always repeated.

T1: LIPY (Mycobacterium tuberculosis, UniProt I6Y2J4)
T1 construct: The 24 open-reading frames (ORFs) were amplified from the genomic DNA of M. tuberculosis H37Rv; 6xHis (pET200 D-TOPO N-terminal fusion) (N); made in house; host or cells: E. coli BL21 Star (DE3)
T1 sequence (I6Y2J4 1-437): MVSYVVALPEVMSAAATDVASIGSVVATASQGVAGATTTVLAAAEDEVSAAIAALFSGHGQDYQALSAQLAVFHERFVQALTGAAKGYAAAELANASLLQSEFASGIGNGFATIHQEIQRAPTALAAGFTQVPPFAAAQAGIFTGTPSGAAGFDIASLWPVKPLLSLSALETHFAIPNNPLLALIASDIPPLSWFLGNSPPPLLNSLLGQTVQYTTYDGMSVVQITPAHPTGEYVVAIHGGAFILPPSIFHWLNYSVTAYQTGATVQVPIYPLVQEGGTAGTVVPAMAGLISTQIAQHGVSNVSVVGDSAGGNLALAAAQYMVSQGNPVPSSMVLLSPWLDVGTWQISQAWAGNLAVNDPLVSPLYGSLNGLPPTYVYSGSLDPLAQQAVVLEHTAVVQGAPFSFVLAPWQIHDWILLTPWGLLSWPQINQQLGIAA

B1: LIPC: M. tuberculosis putative lipase/esterase gene product expressed in E. coli (protein, UniProt P96402 1-403, looked up)
Esterase LipC: MNQRRAAGSTGVAYIRWLLRARPADYMLALSVAGGSLPVVGKHLKPLGGVTAIGVWGARHASDFLSATAKDLLTPGINEVRRRDRASTQEVSVAALRGIVSPDDLAVEWPAPERTPPVCGALRHRRYVHRRRVLYGDDPAQLLDVWRRKDMPTKPAPVLIFVPGGAWVHGSRAIQGYAVLSRLAAQGWVCLSIDYRVAPHHRWPRHILDVKTAIAWARANVDKFGGDRNFIAVAGCSAGGHLSALAGLTANDPQYQAELPEGSDTSVDAVVGIYGRYDWEDRSTPERARFVDFLERVVVQRTIDRHPEVFRDASPIQRVTRNAPPFLVIHGSRDCVIPVEQARSFVERLRAVSRSQVGYLELPGAGHGFDLLDGARTGPTAHAIALFLNQVHRSRAQFAKEVI
B2: LIPL: M. tuberculosis putative lipase/esterase gene product expressed in E. coli (protein, UniProt P71778 1-429, looked up)
Esterase/beta-lactamase LipL: MMVDTGVDHRAVSSHDGPDAGRRVFGAADPRFACVVRAFASMFPGRRFGGGALAVYLDGQPVVDVWKGWADRAGWVPWSADSAPMVFSATKGMTATVIHRLADRGLIDYEAPVAEYWPAFGANGKATLTVRDVMRHQAGLSGLRGATQQDLLDHVVMEERLAAAVPGRLLGKSAYHALTFGWLMSGLARAVTGKDMRLLFREELAEPLDTDGLHLGRPPADAPTRVAEIIMPQDIAANAVLTCAMRRLAHRFSGGFRSMYFPGAIAAVQGEAPLLDAEIPAANGVATARALARMYGAIANGGEIDGIRFLSRELVTGLTRNRRQVLPDRNLLVPLNFHLGYHGMPIGNVMPGFGHVGLGGSIGWTDPETGVAFALVHNRLLSPLVMTDHAGFVGIYHLIRQAAAQARKRGYQPVTPFGAPYSEPGAAAG
B3: LIPN: M. tuberculosis putative lipase/esterase gene product expressed in E. coli (protein, UniProt P95125 1-376, looked up)
Carboxylic ester hydrolase …: MTKSLPGVADLRLGANHPRMWTRRVQGTVVNVGVKVLPWIPTPAKRILSAGRSVIIDGNTLDPTLQLMLSTSRIFGVDGLAVDDDIVASRAHMRAICEAMPGPQIHVDVTDLSIPGPAGEIPARHYRPSGGGATPLLVFYHGGGWTLGDLDTHDALCRLTCRDADIQVLSIDYRLAPEHPAPAAVEDAYAAFVWAHEHASDEFGALPGRVAVGGDSAGGNLSAVVCQLARDKARYEGGPTPVLQWLLYPRTDFTAQTRSMGLFGNGFLLTKRDIDWFHTQYLRDSDVDPADPRLSPLLAESLSGLAPALIAVAGFDPLRDEGESYAKALRAAGTAVDLRYLGSLTHGFLNLFQLGGGSAAGTNELISALRAHLSRV
modifications: expressed in E. coli
B4: LIPI: M. tuberculosis putative lipase/esterase gene product expressed in E. coli (protein, UniProt P71668 1-320, looked up)
Esterase LipI: MPSLDNTADEKPAIDPILLKVLDAVPFRLSIDDGIEAVRQRLRDLPRQPVHPELRVVDLAIDGPAGPIGTRIYWPPTCPDQAEAPVVLYFHGGGFVMGDLDTHDGTCRQHAVGADAIVVSVDYRLAPEHPYPAAIEDAWAATRWVAEHGRQVGADLGRIAVAGDSAGGTIAAVIAQRARDMGGPPIVFQLLWYPSTLWDQSLPSLAENADAPILDVKAIAAFSRWYAGEIDLHNPPAPMAPGRAENLADLPPAYIAVAGYDPLRDDGIRYGELLAAAGVPVEVHNAQTLVHGYVGYAGVVPAATEATNRGLVALRVVLHG
modifications: expressed in E. coli
B5: LIPM: M. tuberculosis putative lipase/esterase gene product expressed in E. coli (protein, UniProt Q50681 1-431, looked up)
Probable carboxylic ester …: MGAPRLIHVIRQIGALVVAAVTAAATINAYRPLARNGFASLWSWFIGLVVTEFPLPTLASQLGGLVLTAQRLTRPVRAVSWLVAAFSALGLLNLSRAGRQADAQLTAALDSGLGPDRRTASAGLWRRPAGGGTAKTPGPLRMLRIYRDYAHDGDISYGEYGRANHLDIWRRPDLDLTGTAPVLFQIPGGAWTTGNKRGQAHPLMSHLAELGWICVAINYRHSPRNTWPDHIIDVKRALAWVKAHISEYGGDPDFIAITGGSAGGHLSSLAALTPNDPRFQPGFEEADTRVQAAVPFYGVYDFTRLQDAMHPMMLPLLERMVVKQPRTANMQSYLDASPVTHISADAPPFFVLHGRNDSLVPVQQARGFVDQLRQVSKQPVVYAELPFTQHAFDLLGSARAAHTAIAVEQFLAEVYATQHAGSEPGPAVAIP
modifications: expressed in E. coli
B6: LIPQ: M. tuberculosis putative lipase/esterase gene product expressed in E. coli (protein, UniProt I6Y9F7 1-421, looked up)
Esterase LipQ: MHIASVTSRCSRAGAEALRQGAQLAADARDTCRAGALLLRGSPCAIGWVAGWLSAEFPARVVTGHALSRISPRSIGRFGTSWAAQRADQILHAALVDAFGPDFRDLVWHPTGEQSEAARRSGLLNLPHIPGPHRRYAAQTSDIPYGPGGRENLLDIWRRPDLAPGRRAPVLIQVPGGAWTINGKRPQAYPLMSRMVELGWICVSINYSKSPRCTWPAHIVDVKRAIAWVRENIADYGGDPDFITITGGSAGAHLAALAALSANDPALQPGFESADTAVQAAAPYYGVYDLTNAENMHEMMMPFLEHFVMRSRYVDNPGLFKAASPISYVHSEAPPFFVLHGEKDPMVPSAQSRAFSAALRDAGAATVSYAELPNAHHAFDLAATVRSRMVAEAVSDFLGVIYGRRMGARKGSLALSSPPAS
B7: LIPJ: M. tuberculosis putative lipase/esterase gene product expressed in E. coli (protein, UniProt O07732 1-462, looked up)
Bifunctional lipase/adenylate …: MAQAPHIHRTRYAKCGDMDIAYQVLGDGPTDLLVLPGPFVPIDSIDDEPSLYRFHRRLASFSRVIRLDHRGVGLSSRLAAITTLGPKFWAQDAIAVMDAVGCEQATIFAPSFHAMNGLVLAADYPERVRSLIVVNGSARPLWAPDYPVGAQVRRADPFLTVALEPDAVERGFDVLSIVAPTVAGDDVFRAWWDLAGNRAGPPSIARAVSKVIAEADVRDVLGHIEAPTLILHRVGSTYIPVGHGRYLAEHIAGSRLVELPGTDTLYWVGDTGPMLDEIEEFITGVRGGADAERMLATIMFTDIVGSTQHAAALGDDRWRDLLDNHDTIVCHEIQRFGGREVNTAGDGFVATFTSPSAAIACADDIVDAVAALGIEVRIGIHAGEVEVRDASHGTDVAGVAVHIGARVCALAGPSEVLVSSTVRDIVAGSRHRFAERGEQELKGVPGRWRLCVLMRDDATRTR
modifications: expressed in E. coli

tested on: not given; assay type: biochemical, M. tuberculosis; settings: pH 8

Row | Molecule | TG hydrolase activity [nmol/mg/min]
1 | B1 | 3.3
2 | B2 | 3.4
3 | B3 | 0
4 | B4 | 0
5 | B5 | 0.02
6 | B6 | 0.11
7 | B7 | 0.04

target: T1, LIPY; assay type: biochemical; settings: not given

Row | Molecule | Effect of salt on LIPY activity (in words) | LIPY activity (triolein hydrolase) Mean ± SD
8 | CC(=O)[O-].[K+] [CH3COO.K, potassium acetate] | enhanced the activity | 692.6 ± 57.0 nmol/mg/min and 749.0 ± 73.3 nmol/mg/min
9 | CC(=O)[O-].[Na+] [CH3COO.Na, sodium acetate] | enhanced the activity | 681.7 ± 80.3 nmol/mg/min and 729.3 ± 96.5 nmol/mg/min
10 | [Ca+2].[Cl-].[Cl-] [CaCl2] | inhibited | 
11 | [Cl-].[Cl-].[Co+2] [CoCl2] | inhibited the activity | 
12 | [Cl-].[K+] [KCl] | enhanced the activity | 675.2 ± 103.5 nmol/mg/min and 686.8 ± 68.8 nmol/mg/min
13 | [Cl-].[Cl-].[Mg+2] [MgCl2] | inhibited the activity | 306.3 ± 111.1 nmol/mg/min and 219.9 ± 34.3 nmol/mg/min
14 | [Cl][Mn][Cl] [MnCl2] | inhibited the activity | 
15 | [Cl-].[Na+] [NaCl] | enhanced the activity | 681.3 ± 87.2 nmol/mg/min
16 | [Cl-].[Cl-].[Zn+2] [ZnCl2] | inhibited the activity | 

same assay, conditions: 0.5 µM

Row | Molecule | Inhibition of LIPY activity [%]
17 | CCOP(=O)(OCC)Oc1ccc([N+](=O)[O-])cc1 [E-600, diethyl-p-nitrophenyl phosphate, reference compound] | 99.5

same assay, conditions: 0.1%

Row | Molecule | Effect of detergent on LIPY lipase activity
18 | polyethylene glycol tert-octylphenyl ether [Triton X-100, reference compound] | stimulated the activity

same assay, conditions: all concentrations from 0.1-2.0%

Row | Molecule | Effect of detergent on LIPY lipase activity
19 | CCCCCCCCCCCC(=O)OCCOCCOCCOCCOCCOCCOCCOCCOCCOCCOCCOCCOCCOCCOCCOCCOCCOCCOCCOCCOCC(OCCOCCOCCOCCOCCOCCOCCOCCOCCOCCOCCOCCOCCOCCOCCOCCOCCOCCOCCOCCO)C1OCC(OCCOCCOCCOCCOCCOCCOCCOCCOCCOCCOCCOCCOCCOCCOCCOCCOCCOCCOCCOCCO)C1OCCOCCOCCOCCOCCOCCOCCOCCOCCOCCOCCOCCOCCOCCOCCOCCOCCOCCOCCOCCO (stereo not drawn) [Tween-20, polyethylene glycol sorbitan monolaurate, reference compound] | inhibited

same assay, conditions: concentrations above 2 mM

Row | Molecule | Effect of detergent on LIPY lipase activity
20 | CCCCCCCCCCCCOS(=O)(=O)[O-].[Na+] [SDS, sodium dodecyl sulfate, reference compound] | severely inhibited

same assay, conditions: concentrations higher than 0.1%

Row | Molecule | Effect of detergent on LIPY lipase activity
21 | polyethylene glycol tert-octylphenyl ether [Triton X-100, reference compound] | inhibitory

same assay, conditions: concentrations up to 2 mM

Row | Molecule | Effect of detergent on LIPY lipase activity
22 | CCCCCCCCCCCCOS(=O)(=O)[O-].[Na+] [SDS, sodium dodecyl sulfate, reference compound] | stimulated slightly
